In patent US6355238B1, “Specific immune system modulation” (Yale University, priority 1992, dated 2002):

Tests used:
[1] = compared with 8-MOP; Calzavara-Pinton et al. 1992; cited from earlier work
Lysozyme = Lysozyme (Gallus gallus, UniProt P00698); experiment: Covalent photobinding of 8-MOP to lysozyme (liquid scintillation, [3H]8-MOP); type: binding; conditions: lysozyme 0.4 mg/ml, 8-MOP 0.04 mg/ml
Method: Lysozyme (0.4 mg/ml) and 8-MOP (0.04 mg/ml) including trace amounts of [3H]8-MOP) were exposed to UVA (3.6 mW/cm^2; filtered with window glass to remove UVB). Aliquots were taken after 15, 30, 60 and 120 min. UVA exposure and were dialyzed exhaustively using distilled water in a microdialyzer (BRL, Bethesda, Md.). An aliquot of each sample was analyzed by liquid scintillation analysis to determine the extent of covalent photobinding of 8-MOP.

Chick ovalbumin = biological target: T1, Chick ovalbumin (Gallus gallus, UniProt P01012); experiment: Covalent photobinding of 8-MOP to ovalbumin with visible light; type: binding
T1 sequence (P01012 1-386): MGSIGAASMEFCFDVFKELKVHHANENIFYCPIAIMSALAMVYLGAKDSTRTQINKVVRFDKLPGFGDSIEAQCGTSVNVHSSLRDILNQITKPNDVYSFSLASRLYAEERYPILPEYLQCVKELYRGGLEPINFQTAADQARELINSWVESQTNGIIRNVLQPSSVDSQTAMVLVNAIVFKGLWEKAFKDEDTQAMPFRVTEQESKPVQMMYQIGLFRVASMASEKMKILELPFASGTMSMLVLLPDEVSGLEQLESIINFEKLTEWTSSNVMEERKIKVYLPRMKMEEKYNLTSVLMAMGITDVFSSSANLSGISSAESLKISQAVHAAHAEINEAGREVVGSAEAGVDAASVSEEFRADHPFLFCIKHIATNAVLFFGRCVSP
Method: Approximately 0.1% photoadducts were observed per amino acid.
Ovalbumin (0.4 mg/ml) and 8-MOP (0.04 mg/ml) containing trace amounts of [^3H]8-MOP) were exposed to visible radiation (419 nm) for 60 min. and thereafter, dialyzed exhaustively using distilled water in a microdialyzer (BRL, Bethesda, Md.). An aliquot of the sample was analyzed by liquid scintillation analysis.

Chain of Lysozyme (P00698 19-147): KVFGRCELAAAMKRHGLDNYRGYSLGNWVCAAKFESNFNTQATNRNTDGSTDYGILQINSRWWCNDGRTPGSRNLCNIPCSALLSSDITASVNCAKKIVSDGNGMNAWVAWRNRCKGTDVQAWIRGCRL

Structure (SMILES) | efficacy in the treatment of psoriasis [1] | moles 8-MOP/moles Lysozyme (Lysozyme; 0 min UVA exposure) | moles 8-MOP/moles Lysozyme (Lysozyme; 30 min UVA exposure (3.6 mW/cm^2)) | moles 8-MOP/moles Lysozyme (Lysozyme; 60 min UVA exposure (3.6 mW/cm^2)) | moles 8-MOP/moles Lysozyme (Lysozyme; 120 min UVA exposure (3.6 mW/cm^2)) | photoadducts per amino acid (Chick ovalbumin; visible light (419 nm)) | extent of covalent photobinding of 8-MOP to ovalbumin (Chick ovalbumin; visible radiation (419 nm) 60 min, ovalbumin 0.4 mg/ml, 8-MOP 0.04 mg/ml)
COc1c2ccoc2cc2oc(=O)ccc12 [5-MOP, 5-methoxypsoralen] | not as efficacious as 8-MOP |  |  |  |  |  | 
COc1c2occc2cc2ccc(=O)oc12 [8-MOP, 8-methoxypsoralen] |  | 0 moles 8-MOP/moles Lysozyme | 0.90 moles 8-MOP/moles Lysozyme | 2.04 moles 8-MOP/moles Lysozyme | 1.86 moles 8-MOP/moles Lysozyme | Approximately 0.1% | approximately 0.039 8-MOP molecules/ovalbumin molecule
